By IC50 is commonly meant the concentration that inhibits the measured activity by half.

For 22 compounds, IC50 results are on record in patent US20250257061A1, “COMPOSITIONS AND METHODS FOR TREATING CANCER AND REDUCING WNT MEDIATED EFFECTS” (StemSynergy Therapeutics, Inc., priority 2024, published 2025).

The test system of experiment [1] is Wnt-dependent HCT116 cell line. The experiment in a line: Viability assay using Wnt-dependent HCT116 cell line (Cell Titer Glo). It counts as cell-based. As for the experimental part:
All compounds were tested using the human cell line HEK STF293. This cell line carries a Wnt reporter (TCF/LEF1 promoter), which drives expression of the firefly luciferase protein. The level of Wnt activity is directly correlated with the level of luciferase activity (determined using a simple assay). Compounds that inhibit Wnt signaling by reducing luciferase activity in these two cell lines are further tested biochemically. […] Compounds were further tested in a Viability assay using Wnt-dependent HCT116 cell line. HEK293 cells were seeded in a 6-well plate at approximately 8.0×10^5 cells (2 mL per well). On the first day, Wnt3a-conditioned media (1:1) and compounds (1:100) were added to the plated cells. The final concentrations of compounds were 1 μM, 500 nM, and 100 nM. Vehicle (DMSO) and a Wnt3a-conditioned media plus Vehicle samples were also prepared as controls. Lysates were collected (with non-denaturing lysis buffer) after 24 hours incubation, and protein concentrations determined by Bradford Assay. Immunoblotting with an anti-beta-catenin antibody (equivalent amounts of protein/lane for each condition) were subsequently performed to determine beta-catenin levels. HCT116 cells were seeded at 2,500 cells/well in a 96-well dish (Volume: 100 μL/well). On the second day, the 10 mM stock solution of each test compound was thawed at room temperature. Dilutions of the test compound were prepared in DMSO in a V-bottom 96-well plate. The stock compound solution, DMSO-diluted compound solutions, and DMSO were further diluted 500-fold in cell culture media, and 100 μL of the compound- or DMSO-containing cell culture media was added to each well of the cells. […] The final DMSO concentration was 0.1% in all wells. On the fifth day, 150 μL of media was removed from each well. 50 μL/well Cell Titer Glo reagent (Promega) was added to each well. The plate was shaken at 130 rpm for 15 minutes at room temperature, and the cell viability was determined using a luminescence plate reader. All compounds were tested using the human cell line HEK STF293. This cell line carries a Wnt reporter (TCF/LEF1 promoter), which drives expression of the firefly luciferase protein. The level of Wnt activity is directly correlated with the level of luciferase activity (determined using a simple assay). Compounds that inhibit Wnt signaling by reducing luciferase activity in these two cell lines are further tested biochemically. […] Compounds were further tested in a Viability assay using Wnt-dependent HCT116 cell line. HEK293 cells were seeded in a 6-well plate at approximately 8.0×10^5 cells (2 mL per well). On the first day, Wnt3a-conditioned media (1:1) and compounds (1:100) were added to the plated cells. The final concentrations of compounds were 1 μM, 500 nM, and 100 nM. Vehicle (DMSO) and a Wnt3a-conditioned media plus Vehicle samples were also prepared as controls. Lysates were collected (with non-denaturing lysis buffer) after 24 hours incubation, and protein concentrations determined by Bradford Assay. Immunoblotting with an anti-beta-catenin antibody (equivalent amounts of protein/lane for each condition) were subsequently performed to determine beta-catenin levels. HCT116 cells were seeded at 2,500 cells/well in a 96-well dish (Volume: 100 μL/well). On the second day, the 10 mM stock solution of each test compound was thawed at room temperature. Dilutions of the test compound were prepared in DMSO in a V-bottom 96-well plate. The stock compound solution, DMSO-diluted compound solutions, and DMSO were further diluted 500-fold in cell culture media, and 100 μL of the compound- or DMSO-containing cell culture media was added to each well of the cells. […] The final DMSO concentration was 0.1% in all wells. On the fifth day, 150 μL of media was removed from each well. 50 μL/well Cell Titer Glo reagent (Promega) was added to each well. The plate was shaken at 130 rpm for 15 minutes at room temperature, and the cell viability was determined using a luminescence plate reader. […]

Experiment [2] deals with Wnt reporter (TCF/LEF1 promoter). The experiment in a line: HEK STF293 Wnt reporter (TOPFlash) luciferase assay, Steady Glo normalised to Cell Titer. Type of experiment: cell-based, human. As for the experimental part: All compounds were tested using the human cell line HEK STF293. This cell line carries a Wnt reporter (TCF/LEF1 promoter), which drives expression of the firefly luciferase protein. The level of Wnt activity is directly correlated with the level of luciferase activity (determined using a simple assay). Compounds that inhibit Wnt signaling by reducing luciferase activity in these two cell lines are further tested biochemically. […] Compounds were further tested in a Viability assay using Wnt-dependent HCT116 cell line. Compounds were prepared as 10 mM stocks for each compound in DMSO. Dilutions were prepared in a 96-well plate in DMSO. The stock dilutions are as follows: 10 mM, 1 mM, 100 μM, 10 μM, 100 nM, and 10 nM. Plates were sealed and stored at −20° C. […] On the first day, Wnt3a-conditioned media (1:1) were added along with diluted compounds (1:100). […] The final concentrations should therefore be 100 μM, 10 μM, 1 μM, 100 nM, 10 nM, and 1 nM. On the second day, the media was removed and 75 μL of Passive Lysis Buffer (Promega) is added to each well. The plate was shaken at 130 rpm for 15 minutes. For the Steady Glo assay, 45 μL of the lysis was removed and added to a white 96-well plate containing 45 μL/well of Steady Glo solution (Promega). For the Cell Titer assay, 25 μL of the lysis was transferred to a white 96-well plate containing 25 μL/well of Cell Titer solution (Promega). Both Steady Glo and Cell Titer assays were read with a luminescence plate reader. When determining EC50, the Steady Glo values were divided by the Cell Titer values to normalize for cell number. All compounds were tested using the human cell line HEK STF293. This cell line carries a Wnt reporter (TCF/LEF1 promoter), which drives expression of the firefly luciferase protein. The level of Wnt activity is directly correlated with the level of luciferase activity (determined using a simple assay). Compounds that inhibit Wnt signaling by reducing luciferase activity in these two cell lines are further tested biochemically. […] Compounds were further tested in a Viability assay using Wnt-dependent HCT116 cell line. Compounds were prepared as 10 mM stocks for each compound in DMSO. Dilutions were prepared in a 96-well plate in DMSO. The stock dilutions are as follows: 10 mM, 1 mM, 100 μM, 10 μM, 100 nM, and 10 nM. Plates were sealed and stored at −20° C. […] On the first day, Wnt3a-conditioned media (1:1) were added along with diluted compounds (1:100). […] The final concentrations should therefore be 100 μM, 10 μM, 1 μM, 100 nM, 10 nM, and 1 nM. On the second day, the media was removed and 75 μL of Passive Lysis Buffer (Promega) is added to each well. The plate was shaken at 130 rpm for 15 minutes. For the Steady Glo assay, 45 μL of the lysis was removed and added to a white 96-well plate containing 45 μL/well of Steady Glo solution (Promega). For the Cell Titer assay, 25 μL of the lysis was transferred to a white 96-well plate containing 25 μL/well of Cell Titer solution (Promega). Both Steady Glo and Cell Titer assays were read with a luminescence plate reader. When determining EC50, the Steady Glo values were divided by the Cell Titer values to normalize for cell number. All compounds were tested using the human cell line HEK STF293. This cell line carries a Wnt reporter (TCF/LEF1 promoter), which drives expression of the firefly luciferase protein. The level of Wnt activity is directly correlated with the level of luciferase activity (determined using a simple assay). Compounds that inhibit Wnt signaling by reducing luciferase activity in these two cell lines are further tested biochemically. […] Compounds were further tested in a Viability assay using Wnt-dependent HCT116 cell line. Compounds were prepared as 10 mM stocks for each compound in DMSO. Dilutions were prepared in a 96-well plate in DMSO. The stock dilutions are as follows: 10 mM, 1 mM, 100 μM, 10 μM, 100 nM, and 10 nM. Plates were sealed and stored at −20° C. […]

Where [3] appears, read: Homo sapiens, HCT-116, Examples for Formulae (IV), (V), (VI), and (VII), HCT116 cells, read-out: Viability IC50 category.
Setting [4] is: Homo sapiens, STF/293, Examples for Formulae (IV), (V), (VI), and (VII), HEK STF293 cells, Wnt3a-conditioned media, read-out: TOPFlash IC50 category.
The mark [5] stands for this setting: Homo sapiens, HCT-116, read-out: Viability IC50 category.
Setting [6] is: Homo sapiens, STF/293, read-out: TOPFlash IC50 category.
The mark [7] stands for this setting: Examples for Formulae (IV), (V), (VI), and (VII), HCT116 cells, read-out: Viability IC50 category.
Where [8] appears, read: Examples for Formulae (IV), (V), (VI), and (VII), HEK STF293 cells, Wnt3a-conditioned media, read-out: TOPFlash IC50 category.
Setting [9] is: Homo sapiens, HCT-116, Examples for Formulae (I), (II), and (III), HCT116 cells, read-out: Viability IC50 category.
The mark [10] stands for this setting: Homo sapiens, STF/293, Examples for Formulae (I), (II), and (III), HEK STF293 cells, Wnt3a-conditioned media, read-out: TOPFlash IC50 category.

Like-named read-outs stand apart in the source and are kept apart here.

`O=C(Nc1nc(-c2ccccn2)cs1)c1ocnc1-c1ccccc1` [Example 2]: the IC50 in experiment [1] (setting [3]) is 200 to 500 nM; in experiment [2] (setting [4]) it was under 200 nM.
Taken in the same sequence, the figures for `CC(C)S(=O)(=O)N(C)c1nc(-c2ccc(F)cc2)c(C(=O)Nc2nc(-c3ccccn3)cs2)o1` [Example 58] were under 200 nM and under 200 nM.
Taken in the same sequence, the figures for `Cc1nc(-c2ccc(F)cc2)c(C(=O)Nc2nc(-c3ccccn3)cs2)o1` [Example 8] were under 200 nM and under 200 nM.
In the case of `COc1ccccc1-c1noc(C)c1C(=O)Nc1nc(-c2ccccn2)cs1` [Example 21], the IC50 in experiment [1] (setting [5]) and in experiment [2] (setting [6]) was 1000 to 10000 nM throughout.
In the case of `CN(c1nc(C(F)(F)F)c(C(=O)Nc2nc(-c3ccccn3)cs2)o1)S(=O)(=O)c1ccc(C(F)(F)F)cc1` [Example 55], the IC50 in experiment [1] (setting [3]) and in experiment [2] (setting [4]) was 200 to 500 nM in each case.
Turning to `COc1cc(F)ccc1-c1ncoc1C(=O)Nc1nc(-c2ccccn2)cs1` [Example 46], the IC50 in experiment [1] (setting [7]) and in experiment [2] (setting [8]) was 500 to 1000 nM throughout.
As for `Cc1onc(-c2cccc(F)c2F)c1C(=O)Nc1nc(-c2ccccn2)cs1` [Example 19], the IC50 in experiment [1] (setting [3]) and in experiment [2] (setting [4]) was 200 to 500 nM in each case.
With `CN(c1ncc(C(=O)O)o1)S(=O)(=O)c1ccc(Cl)cc1` [Example 37], the IC50 in experiment [1] (setting [7]) is 200 to 500 nM; in experiment [2] (setting [8]) it was under 200 nM.
Take `Cc1onc(-c2c(Cl)cccc2Cl)c1C(=O)Nc1nc(-c2ccccn2)cs1` [Example 29]: the IC50 in experiment [1] (setting [5]) and in experiment [2] (setting [6]) was under 200 nM throughout.
Take `COc1ccc(Cn2cc(C(=O)Nc3nc(-c4ccccn4)cs3)cn2)cc1` [Example 3]: the IC50 in experiment [1] (setting [9]) and in experiment [2] (setting [10]) was 1000 to 10000 nM throughout.
With `Cc1c(C(=O)Nc2nc(-c3ccccn3)cs2)cnn1Cc1ccccc1` [Example 1], the IC50 in experiment [1] (setting [9]) and in experiment [2] (setting [10]) was 1000 to 10000 nM each time.
Take `CS(=O)(=O)c1ccc(-n2nccc2C(=O)Nc2nc(-c3ccccn3)co2)cc1` [Example 1]: the IC50 in experiment [1] (Homo sapiens, HCT-116, Examples for Formulae (VIII), (IX), and (X), HCT116 cells, read-out: Viability IC50 category) was under 200 nM; in experiment [2] (Homo sapiens, STF/293, Examples for Formulae (VIII), (IX), and (X), HEK STF293 cells, Wnt3a-conditioned media, read-out: TOPFlash IC50 category), 200 to 500 nM.
For the compound `CN(c1nc(-c2ccc(F)cc2)c(C(=O)Nc2nc(-c3ccccn3)cs2)o1)S(=O)(=O)c1ccc(C(F)(F)F)cc1` [Example 61], the IC50 in experiment [1] (setting [7]) and in experiment [2] (setting [8]) was under 200 nM throughout.
Consider `Cc1nn(Cc2ccc(Cl)cc2Cl)c(Cl)c1C(=O)Nc1nc(-c2ccccn2)cs1` [Example 13], for which the IC50 in experiment [1] (setting [9]) and in experiment [2] (setting [10]) was 500 to 1000 nM in each case.
For the compound `COc1ccc(S(=O)(=O)N(C)c2ncc(C(=O)O)o2)cc1` [Example 40], the IC50 in experiment [1] (setting [7]) and in experiment [2] (setting [8]) was 200 to 500 nM throughout.
In the case of `CC(C)CS(=O)(=O)N(C)c1nc(-c2ccc(F)cc2)c(C(=O)Nc2nc(-c3ccccn3)cs2)o1` [Example 60], the IC50 in experiment [1] (setting [3]) and in experiment [2] (setting [4]) was under 200 nM throughout.
`CN(C)C(=O)c1ccc(-c2ncoc2C(=O)Nc2nc(-c3ccccn3)cs2)cc1` [Example 41]: the IC50 in experiment [1] (setting [3]) and in experiment [2] (setting [4]) was 500 to 1000 nM each time.
Take `Cc1onc(-c2ccccc2Cl)c1C(=O)Nc1nc(-c2ccccn2)cs1` [Example 28]: the IC50 in experiment [1] (setting [5]) and in experiment [2] (setting [6]) was 200 to 500 nM in each case.
Turning to `COc1ccc(S(=O)(=O)N(C)c2ncc(C(=O)Nc3nc(-c4ccccn4)cs3)o2)cc1` [Example 39], the IC50 in experiment [1] (setting [3]) and in experiment [2] (setting [4]) was 500 to 1000 nM throughout.
In the case of `CCS(=O)(=O)N(C)c1nc(-c2ccc(F)cc2)c(C(=O)Nc2nc(-c3ccccn3)cs2)o1` [Example 57], the IC50 in experiment [1] (setting [3]) and in experiment [2] (setting [4]) was under 200 nM each time.
Consider `CN1CCN(Cc2nc(-c3ccc(F)cc3)c(C(=O)Nc3nc(-c4ccccn4)cs3)o2)CC1` [Example 71], for which the IC50 in experiment [1] (setting [3]) and in experiment [2] (setting [4]) was 200 to 500 nM each time.
Turning to `CN(c1ncc(C(=O)Nc2nc(-c3ccccn3)cs2)o1)S(=O)(=O)c1ccc(Cl)cc1` [Example 38], the IC50 in experiment [1] (setting [7]) is 500 to 1000 nM; in experiment [2] (setting [8]) it was 200 to 500 nM.
